Assay results published in ChEMBL document CHEMBL1145579, “Development of potent and selective small-molecule human Urotensin-II antagonists” (Bioorg Med Chem Lett, 2008).

How the values were obtained:
[1] = biological target: Kappa-type opioid receptor (Homo sapiens, UniProt P41145); experiment: Agonist activity at kappa opioid receptor; assay type: functional
[2] = Volume of distribution at steady state in rat at 2 mg/kg, iv and 4 mg/kg, po; assay type: ADME, organism-based; conditions: in vivo, read-out: Vdss
Cytochrome P450 3A4 = Cytochrome P450 3A4 (Homo sapiens, UniProt P08684)
Sequence of Cytochrome P450 3A4 (P08684 whole entry): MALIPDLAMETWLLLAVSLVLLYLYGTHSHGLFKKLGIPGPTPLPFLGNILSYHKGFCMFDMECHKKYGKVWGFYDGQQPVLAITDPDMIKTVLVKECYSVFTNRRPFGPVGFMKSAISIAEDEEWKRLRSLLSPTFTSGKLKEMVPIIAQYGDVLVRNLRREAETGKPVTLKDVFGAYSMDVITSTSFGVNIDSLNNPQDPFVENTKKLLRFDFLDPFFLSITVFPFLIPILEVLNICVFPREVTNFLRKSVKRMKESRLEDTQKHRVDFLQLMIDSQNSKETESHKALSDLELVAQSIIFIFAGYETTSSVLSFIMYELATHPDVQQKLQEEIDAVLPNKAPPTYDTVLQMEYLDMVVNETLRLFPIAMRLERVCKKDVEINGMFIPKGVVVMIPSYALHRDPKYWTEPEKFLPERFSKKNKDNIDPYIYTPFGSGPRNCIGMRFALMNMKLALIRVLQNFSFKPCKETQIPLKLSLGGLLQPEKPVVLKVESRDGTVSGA

[3] = Half life in rat at 2 mg/kg, iv and 4 mg/kg, po; assay type: ADME, organism-based; conditions: in vivo
Cytochrome P450 2D6 = Cytochrome P450 2D6 (Homo sapiens, UniProt P10635); experiment: Inhibition of CYP2D6; assay type: ADME
Sequence of Cytochrome P450 2D6 (P10635 whole entry): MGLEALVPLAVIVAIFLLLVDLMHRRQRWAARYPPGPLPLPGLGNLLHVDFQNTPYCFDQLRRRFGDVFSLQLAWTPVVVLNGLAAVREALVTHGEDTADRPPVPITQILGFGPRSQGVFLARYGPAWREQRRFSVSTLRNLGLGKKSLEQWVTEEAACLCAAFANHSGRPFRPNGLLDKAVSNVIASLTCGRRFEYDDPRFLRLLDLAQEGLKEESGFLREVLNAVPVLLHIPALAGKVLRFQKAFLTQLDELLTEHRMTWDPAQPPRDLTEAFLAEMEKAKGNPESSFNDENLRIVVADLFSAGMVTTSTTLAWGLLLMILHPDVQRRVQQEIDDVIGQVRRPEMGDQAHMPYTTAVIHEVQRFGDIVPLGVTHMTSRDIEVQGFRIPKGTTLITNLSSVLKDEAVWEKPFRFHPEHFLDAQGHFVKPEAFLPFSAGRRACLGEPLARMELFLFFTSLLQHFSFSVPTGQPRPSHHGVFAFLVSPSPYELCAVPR

[4] = Clearance in rat at 2 mg/kg, iv and 4 mg/kg, po; assay type: ADME, organism-based; conditions: in vivo
Urotensin-2 receptor = biological target: T1, Urotensin-2 receptor (Homo sapiens, UniProt Q9UKP6); experiment: Displacement of [125I]hU-2 from human recombinant Urotensin 2 receptor expressed in HEK293 cells; assay type: cell-based
T1 sequence (Q9UKP6 whole entry): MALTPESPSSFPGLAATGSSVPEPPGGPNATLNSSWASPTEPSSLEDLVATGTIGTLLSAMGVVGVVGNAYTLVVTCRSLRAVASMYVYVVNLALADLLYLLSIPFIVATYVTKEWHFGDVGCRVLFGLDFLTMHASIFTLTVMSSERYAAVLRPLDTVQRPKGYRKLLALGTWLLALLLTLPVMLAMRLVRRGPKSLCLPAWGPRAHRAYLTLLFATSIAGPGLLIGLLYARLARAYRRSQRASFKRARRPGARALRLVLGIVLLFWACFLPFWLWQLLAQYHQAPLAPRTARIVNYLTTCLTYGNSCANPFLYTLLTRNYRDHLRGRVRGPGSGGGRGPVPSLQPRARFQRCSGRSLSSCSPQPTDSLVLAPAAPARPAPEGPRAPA

[5] = Oral bioavailability in rat at 4 mg/kg, po; assay type: ADME, organism-based; conditions: in vivo
[6] = Binding affinity at batrachotoxinin sensitive Sodium channel in rat brain; assay type: tissue-based
[7] = Cmax in rat at 2 mg/kg, iv and 4 mg/kg, po; assay type: ADME, organism-based; conditions: in vivo
[8] = biological target: T2, Urotensin-2 receptor (Rattus norvegicus) (UniProt P49684); experiment: Binding affinity at Urotensin 2 receptor in rat aorta.
T2 sequence (whole entry): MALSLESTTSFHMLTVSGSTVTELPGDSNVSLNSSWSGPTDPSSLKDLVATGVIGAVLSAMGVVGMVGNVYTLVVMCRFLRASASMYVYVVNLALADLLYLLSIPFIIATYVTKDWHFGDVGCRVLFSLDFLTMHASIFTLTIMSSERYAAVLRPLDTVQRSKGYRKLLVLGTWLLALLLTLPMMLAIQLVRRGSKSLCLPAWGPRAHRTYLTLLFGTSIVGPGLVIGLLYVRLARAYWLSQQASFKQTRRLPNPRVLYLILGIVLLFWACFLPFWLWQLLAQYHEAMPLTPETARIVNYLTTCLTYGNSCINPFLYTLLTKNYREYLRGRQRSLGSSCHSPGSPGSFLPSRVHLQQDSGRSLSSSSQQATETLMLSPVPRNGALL

Sequence of Kappa-type opioid receptor (P41145 whole entry): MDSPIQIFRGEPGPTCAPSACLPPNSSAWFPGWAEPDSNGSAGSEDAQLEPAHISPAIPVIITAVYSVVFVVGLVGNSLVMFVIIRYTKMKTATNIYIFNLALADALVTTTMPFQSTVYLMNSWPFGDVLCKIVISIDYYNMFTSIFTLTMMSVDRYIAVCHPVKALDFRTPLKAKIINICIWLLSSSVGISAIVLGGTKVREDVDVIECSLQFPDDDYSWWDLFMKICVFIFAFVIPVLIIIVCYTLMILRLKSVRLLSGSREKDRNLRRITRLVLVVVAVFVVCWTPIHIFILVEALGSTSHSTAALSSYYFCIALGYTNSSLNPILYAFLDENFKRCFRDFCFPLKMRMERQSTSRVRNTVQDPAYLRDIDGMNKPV

O=C(Cn1c(=O)sc2ccc(Cl)cc21)N1CCCC(c2ccccc2)C1CN1CCOCC1 (racemic)
EC50 [1]: 7.9 µM
Vd [2]: 26 L/kg
IC50 (Cytochrome P450 3A4): 0.68 µM
half-life [3]: 5 h
IC50 (Cytochrome P450 2D6): 8 µM
clearance [4]: 130 mL/min/kg
Ki (Urotensin-2 receptor): 0.006 µM
bioavailability [5]: < 1%
Ki [6]: 3.5 µM
Cmax [7]: 160 ng/mL

O=C(Cn1c(=O)oc2ccc(Cl)cc21)N1CCCC(c2ccccc2)C1CN1CCCC1 (racemic)
EC50 [1]: 5 µM
IC50 (Cytochrome P450 3A4): 2.1 µM
IC50 (Cytochrome P450 2D6): 2.2 µM
Ki (Urotensin-2 receptor): 0.005 µM
Ki [6]: 0.15 µM

N#CCN(CC(=O)N1CCCC(c2ccccc2)C1CN1CCOCC1)c1ccc(Cl)c(Cl)c1 (racemic)
EC50 [1]: 5 µM
Vd [2]: 8 L/kg
IC50 (Cytochrome P450 3A4): 0.49 µM
half-life [3]: 2.6 h
IC50 (Cytochrome P450 2D6): 3.7 µM
clearance [4]: 60 mL/min/kg
Ki (Urotensin-2 receptor): 0.006 µM
bioavailability [5]: 7%
Ki [6]: 4 µM
Cmax [7]: 370 ng/mL

O=C(Cn1c(=O)oc2ccc(Cl)cc21)N1CCCC(c2ccccc2)C1CN1CCOCC1 (racemic)
EC50 [1]: 1.3 µM
IC50 (Cytochrome P450 3A4): 1.3 µM
IC50 (Cytochrome P450 2D6): 3.5 µM
Ki (Urotensin-2 receptor): 0.04 µM
Ki [6]: 0.73 µM

COCCN(CC(=O)N1CCCC(c2ccccc2)C1CN1CCCC1)c1ccc(Cl)c(Cl)c1 (stereo not given)
EC50 [1]: 1 µM
Vd [2]: 27 L/kg
half-life [3]: 2.8 h
IC50 (Cytochrome P450 2D6): 0.82 µM
clearance [4]: 120 mL/min/kg
Ki (Urotensin-2 receptor): 0.008 µM
bioavailability [5]: 30%
Ki [6]: 0.96 µM
Cmax [7]: 95 ng/mL

Cc1cc2ncc(=O)n(CC(=O)N3CCCC(c4ccccc4)C3CN3CCCC3)c2cc1C (racemic)
EC50 [1]: 6.3 µM
IC50 (Cytochrome P450 3A4): 6.8 µM
IC50 (Cytochrome P450 2D6): 8.4 µM
Ki (Urotensin-2 receptor): 0.001 µM
Ki [6]: 1.4 µM

O=C1COc2cc(Cl)c(Cl)cc2N1CC(=O)N1CCCC(c2ccccc2)C1CN1CCOCC1 (racemic)
EC50 [1]: 7.9 µM
IC50 (Cytochrome P450 3A4): 0.73 µM
IC50 (Cytochrome P450 2D6): 4.8 µM
Ki (Urotensin-2 receptor): 0.002 µM
Ki [6]: 1.3 µM

CN(CC(=O)N1CCCC(c2ccccc2)C1CN1CCOCC1)c1ccc(Cl)c(Cl)c1 (racemic)
EC50 [1]: 1 µM
IC50 (Cytochrome P450 2D6): 2.3 µM
Ki (Urotensin-2 receptor): 0.079 µM
Ki [6]: 1.6 µM

O=C1COc2cc(Cl)c(Cl)cc2N1CC(=O)N1CCCC(c2ccccc2)C1CN1CCCC1 (racemic)
EC50 [1]: 0.5 µM
IC50 (Cytochrome P450 3A4): 1.8 µM
IC50 (Cytochrome P450 2D6): 1.6 µM
Ki (Urotensin-2 receptor): 0.0004 µM
Ki [6]: 0.68 µM

COCCN(CC(=O)N1CCCC(c2ccccc2)C1CN1CCOCC1)c1ccc(Cl)c(Cl)c1 (racemic)
EC50 [1]: 10 µM
IC50 (Cytochrome P450 3A4): 0.48 µM
IC50 (Cytochrome P450 2D6): 3.2 µM
Ki (Urotensin-2 receptor): 0.13 µM
Ki [6]: 3.2 µM

Cc1cc2ncc(=O)n(CC(=O)N3CCCC(c4ccccc4)C3CN3CCOCC3)c2cc1C (racemic)
EC50 [1]: 30 µM
IC50 (Cytochrome P450 3A4): 2.7 µM
IC50 (Cytochrome P450 2D6): 6.7 µM
Ki (Urotensin-2 receptor): 0.005 µM
Ki [6]: 6.9 µM

O=C(Cn1c(=O)cnc2cc(Cl)c(Cl)cc21)N1CCCC(c2ccccc2)C1CN1CCOCC1 (racemic)
EC50 [1]: 15 µM
IC50 (Cytochrome P450 3A4): 1 µM
IC50 (Cytochrome P450 2D6): 21 µM
Ki (Urotensin-2 receptor): 0.003 µM
Ki [6]: 18 µM

N#CCN(CC(=O)N1CCCC(c2ccccc2)C1CN1CCCC1)c1ccc(Cl)c(Cl)c1 (racemic)
EC50 [1]: 0.79 µM
Vd [2]: 27 L/kg
IC50 (Cytochrome P450 3A4): 1.1 µM
half-life [3]: 3.2 h
IC50 (Cytochrome P450 2D6): 2.3 µM
Kb [8]: 0.005 µM
clearance [4]: 100 mL/min/kg
Ki (Urotensin-2 receptor): 0.002 µM
bioavailability [5]: 12%
Ki [6]: 1.6 µM
Cmax [7]: 120 ng/mL

O=C(Cn1c(=O)cnc2cc(Cl)c(Cl)cc21)N1CCCC(c2ccccc2)C1CN1CCCC1 (racemic)
EC50 [1]: 3.2 µM
IC50 (Cytochrome P450 3A4): 1.2 µM
IC50 (Cytochrome P450 2D6): 2.9 µM
Ki (Urotensin-2 receptor): 0.0006 µM
Ki [6]: 0.93 µM

Cc1cc2c(cc1C)N(CC(=O)N1CCCC(c3ccccc3)C1CN1CCCC1)C(=O)CO2 (racemic)
EC50 [1]: 5 µM
IC50 (Cytochrome P450 3A4): 3.9 µM
IC50 (Cytochrome P450 2D6): 5.1 µM
Ki (Urotensin-2 receptor): 0.0004 µM
Ki [6]: 0.39 µM

O=C(Cn1c(=O)sc2ccc(Cl)cc21)N1CCCC(c2ccccc2)C1CN1CCCC1 (racemic)
EC50 [1]: 1.3 µM
IC50 (Cytochrome P450 3A4): 1 µM
IC50 (Cytochrome P450 2D6): 1.7 µM
Ki (Urotensin-2 receptor): 0.0012 µM
Ki [6]: 0.33 µM

CN(CC(=O)N1CCCC(c2ccccc2)C1CN1CCCC1)c1ccc(Cl)c(Cl)c1 (racemic)
EC50 [1]: 3.2 µM
Vd [2]: 23 L/kg
IC50 (Cytochrome P450 3A4): 1.4 µM
half-life [3]: 3.8 h
IC50 (Cytochrome P450 2D6): 0.75 µM
Kb [8]: 0.028 µM
clearance [4]: 97 mL/min/kg
Ki (Urotensin-2 receptor): 0.016 µM
bioavailability [5]: 0%
Ki [6]: 2.5 µM
Cmax [7]: 100 ng/mL
